Assay: xn = mol fraction of the nth substance listed
Settings: 100 kPa

`C[P+](c1ccccc1)(c1ccccc1)c1ccccc1.[Br-]` + OCCO gave a viscosity (293.15 K, x1 = 0.1) of 45.5 mPa·s, a viscosity (293.15 K, x1 = 0.13) of 56.5 mPa·s and a viscosity (293.15 K, x1 = 0.17) of 74.7 mPa·s. The viscosity (293.15 K, x1 = 0.2) was 100.6 mPa·s, the viscosity (293.15 K, x1 = 0.25) was 148.7 mPa·s and the viscosity (293.15 K, x1 = 0.33) was 225 mPa·s. For the same molecule, the viscosity (298.15 K, x1 = 0.13) was 43.3 mPa·s, the viscosity (298.15 K, x1 = 0.17) was 55.7 mPa·s and the viscosity (298.15 K, x1 = 0.2) was 74.5 mPa·s. It also gave a viscosity (298.15 K, x1 = 0.25) of 106.7 mPa·s, a viscosity (298.15 K, x1 = 0.33) of 158 mPa·s and a viscosity (303.15 K, x1 = 0.1) of 27.4 mPa·s. For the same molecule, the viscosity (303.15 K, x1 = 0.13) was 33.8 mPa·s, the viscosity (303.15 K, x1 = 0.17) was 43.5 mPa·s and the viscosity (303.15 K, x1 = 0.2) was 56.2 mPa·s. It also gave a viscosity (303.15 K, x1 = 0.25) of 78.9 mPa·s, a viscosity (308.15 K, x1 = 0.1) of 22.37 mPa·s and a viscosity (308.15 K, x1 = 0.13) of 27.1 mPa·s. The viscosity (308.15 K, x1 = 0.17) was 34.5 mPa·s, the viscosity (308.15 K, x1 = 0.2) was 43.3 mPa·s and the viscosity (308.15 K, x1 = 0.25) was 60 mPa·s. For the same molecule, the viscosity (308.15 K, x1 = 0.33) was 85.5 mPa·s, the viscosity (313.15 K, x1 = 0.13) was 21.86 mPa·s and the viscosity (313.15 K, x1 = 0.17) was 27.3 mPa·s. It also gave a viscosity (313.15 K, x1 = 0.2) of 34 mPa·s, a viscosity (313.15 K, x1 = 0.25) of 46.4 mPa·s and a viscosity (318.15 K, x1 = 0.1) of 15.1 mPa·s. The viscosity (318.15 K, x1 = 0.13) was 18.05 mPa·s, the viscosity (318.15 K, x1 = 0.17) was 21.01 mPa·s and the viscosity (318.15 K, x1 = 0.2) was 27.2 mPa·s. The viscosity (318.15 K, x1 = 0.25) was 36.4 mPa·s, the viscosity (318.15 K, x1 = 0.33) was 50.5 mPa·s and the viscosity (323.15 K, x1 = 0.1) was 12.6 mPa·s. For the same molecule, the viscosity (323.15 K, x1 = 0.13) was 14.94 mPa·s, the viscosity (323.15 K, x1 = 0.17) was 17.81 mPa·s and the viscosity (323.15 K, x1 = 0.2) was 21.91 mPa·s. It also gave a viscosity (323.15 K, x1 = 0.25) of 29 mPa·s and a viscosity (323.15 K, x1 = 0.33) of 39.6 mPa·s.
